{"source": "patent US11806351B2", "about": "“Use of coenzyme factor for activation of ATP production in cell” (TERA STONE Co., Ltd, priority 2018, dated 2023)", "key": {"hippocampal neurons [1]": {"tested_on": "hippocampal neurons", "assay": "mature cultured hippocampal neurons: dendrite branches", "type": "cell-based, ICR mouse", "method": "As in Example 4, hippocampal neurons were collected from a juvenile (0 day after birth) ICR mouse brain and the neurons were cultured on a culture dish.\nSpecimen 1 was administered once to the mature cultured hippocampal cells (on culture day 11) and three days later (on culture day 14), the neuron axons and dendrites of the hippocampal neurons (neurons) were observed.\nConcentric circles were drawn at an interval of 10 μm with a soma as a center and the number of dendrites crossing the circles was measured."}, "[2]": {"tested_on": "human-derived neuroblast (Neuroblastoma) SH-SY5Y strain", "assay": "fluorescence measurement of intracellular/extracellular ATP concentration in SH-SY5Y cultured cells", "type": "cell-based", "settings": "for intracellular ATP production (fluorescence intensity): in the cells", "method": "After the addition of Specimen 1 to cultured cells of a human-derived neuroblast (Neuroblastoma) SH-SY5Y strain, fluorescence measurement of an intracellular/extracellular ATP concentration was performed."}, "SIRT1": {"tested_on": "SIRT1", "assay": "SIRT1 in treated nematode (preliminary experiment)", "type": "in vivo", "settings": "nematode treated for 24 hours"}, "[3]": {"tested_on": "astrocytes, one of glial cells of the central nerve system", "assay": "fluorescence measurement of ATP amount in cultured astrocytes", "type": "cell-based", "settings": "1 μM", "method": "Specimen 1 was added to astrocytes, one of glial cells of the central nerve system, after culturing and the fluorescence measurement results are shown in FIG. 2A and FIG. 2B."}, "[4]": {"tested_on": "cytoplasmic calcium concentration", "assay": "cytoplasmic calcium concentration in brain slice preparations exposed to 80K ACSF, 24 h after subcutaneous administration", "type": "in vivo, mouse (C57B/6NL)", "method": "(§1) Formation of brain slice preparation and measurement of calcium concentration: Used was a whole brain half-cut preparation obtained by cutting a whole brain slice (300 μm) of a mouse (C57B/6NL), pretreated with Specimen 1 for 24 hours by subcutaneous administration, at a median line. […] The resulting preparation was placed in a chamber provided on a stage of an inverted fluorescence microscope (Olympus IX71), covered with a piece of black cotton, fixed with a platinum ring, and refluxed (70 ml/hr) in ACSF aerated with 95% O2 and 5% CO2. A fluorescent image of the preparation was acquired using a 4× objective lens and respective images of the hippocampal ventral part and cerebral cortex temporal region were obtained in one screen. For the measurement of a mitochondrial calcium concentration, a change in intensity of red fluorescence (>600 nm) caused by excitation light at 580 nm was determined and for the measurement of a cytoplasmic calcium concentration, a ratio of fluorescence (>500 nm) between excitation at 360 nm and that at 380 nm was determined. A hippocampal CA1 site and a cerebral cortex were used as two regions of interest (ROI).\n(§2) In water was dissolved β-NMN to give a 10 mg/kg, 30 mg/kg, or 100 mg/kg solution; Specimen 1 was dissolved in an alcohol to give a solution of 1 mg/ml and then the resulting solution was diluted with water to give a 0.01 mg/kg, 0.1 mg/kg or 1.0 mg/kg solution; and they were subcutaneously administered to mice 24 hours before the formation of the preparation (0.1 ml/10 g).\n(§3) In the present test, an operation of exposing the brain preparations formed from mice administered with two drugs having respective concentrations to isotonic 80 mM KCl-ACSF (artificial cerebrospinal fluid) for 5 minutes and then returning them in normal ACSF for 5 minutes was performed three successive times to give a severe calcium load to the preparations. Variations in cytoplasmic and mitochondrial calcium concentrations at that time were measured."}, "[5]": {"tested_on": "mitochondrial calcium concentration", "assay": "mitochondrial calcium concentration in brain slice preparations exposed to 80K ACSF, 24 h after subcutaneous administration", "type": "in vivo, mouse (C57B/6NL)", "method": "as §1, §2, §3\nFIG. 31A to FIG. 32C show the quantification results of the effects of β-NMN and Specimen 1 (TND1128) at each concentration. In FIG. 31A to FIG. 32C, FIG. 31A and FIG. 32A show the results of calculating a mitochondrial calcium concentration, as AUC (Area under the curve), for 35 minutes from 5 minutes after starting of the experiment by administration to three times exposure to 80K-ACSF and 5-minute washing (refer to FIG. 37). FIG. 31B. FIG. 31C, FIG. 32B and FIG. 32C show the drug effects on 5-minute 80K administration and 5-minute subsequent washing (1st: from 5 minutes to 15 minutes, 2nd: from 15 minutes to 25 minutes, and 3rd: from 25 minutes to 35 minutes) in the cerebral cortex (CTX) and the hippocampus (CA1), respectively (refer to FIG. 37). A significant difference test was performed using Tukey's method."}, "[6]": {"tested_on": "human glioma U251 cells (Sig1-R transfected cells)", "assay": "intracellular ATP concentration in human glioma U251 cells", "type": "cell-based", "settings": "fluorescence measurement 6 hours after administration", "method": "To cultured human glioma US251 cells (Sig1-R transfected cells) were added Specimens 1 and 2, respectively and intercomparison was performed between intracellular ATP concentration after addition and that without addition (Cont.). […] It is to be noted that fluorescence measurement was performed 6 hours after the administration of the specimens."}, "[7]": {"assay": "lipophilicity, hydrophobicity and stability", "type": "physicochemical"}, "hippocampal neurons [8]": {"tested_on": "hippocampal neurons", "assay": "cultured hippocampal neurons, initial stage of growth: axons, dendrites, excitatory synapses", "type": "cell-based, ICR mouse", "method": "Hippocampal neurons were collected from a juvenile (0 day after birth) ICR mouse brain and neurons were cultured on a culture dish.\nSpecimen 1 was added once to the cells in the initial stage of growth (on culture day 1) and after three days (on culture day 4), the number of neuron axons, dendrites, and growing synapses of the hippocampal neurons (neurons) was quantified. Specimen 1 (0.1 μM, 0.3 μM, 1.0 μM) was added once on culture day 1. Axon and Dendrite were immunostained with a tau antibody and a MAP2 antibody, respectively, three days after the addition (on culture day 4) and morphology thereof was observed.\nAn experiment was performed by drawing concentric circles (not shown) at an interval of 10 μm with a soma as a center and the number of axons crossing the circles was measured.\nThe dendrite was immunostained with a MAP2 antibody on culture day 4 and the number of branches of the dendrite was quantified. An experiment was performed by drawing concentric circles (not shown) at an interval of 10 μm with a soma as a center and the number of dendrites crossing the circles was counted.\nThen, excitatory synapses on culture 14 day were immunostained with a VGLUT1 antibody and the number of synapses was quantified."}, "[9]": {"settings": "0.3 μM and 1.0 μM, culture day 4"}}}
{"smiles": "CCn1c2nc(=O)n(C)c(=O)c-2cc2ccccc21", "note": "[Specimen 1]", "values": [{"measurement": "number of dendrites in mature cultured cell", "setting": "hippocampal neurons [1]; 0.3 μM and 1 μM, administered culture day 11, MAP2 antibody culture day 14", "value": "the number of dendrites tends to increase"}, {"measurement": "increase in the number of dendrite branches, mature cells compared with culture day 4", "setting": "hippocampal neurons [1]; administered culture day 11, observed culture day 14", "value": "an increase in the number of branches was not so more marked than that caused by the drug efficacy observed in the cells on culture day 4"}, {"measurement": "intracellular ATP production (fluorescence intensity)", "setting": "[2]; 1 μM, after 12 hours", "value": "the effect disappears after 12 hours"}, {"measurement": "intracellular ATP production (fluorescence intensity)", "setting": "[2]; 1 μM, immediately after addition", "value": "an increase in ATP production (increase in fluorescence intensity) is observed for 5 hours"}, {"measurement": "extracellular ATP production / ATP concentration", "setting": "[2]; 1 μM, outside the cells", "value": "an increase in ATP production is observed for 5 hours"}, {"measurement": "morphological change of the cultured cells", "setting": "[2]; treatment with the specimen", "value": "no morphological change of the cultured cells"}, {"measurement": "SIRT1", "setting": "SIRT1", "value": "significant increase"}, {"measurement": "ATP amount in the glial cells", "setting": "[3]; 12 hours and 24 hours after administration", "value": "significantly increased"}, {"measurement": "extracellular ATP amount", "setting": "[3]; astrocytes", "value": "shows a similar tendency"}, {"measurement": "effect on drastic increase in cytoplasmic Ca2+ concentration caused by 80K-ACSF", "setting": "[4]; s.c. 24 h pretreatment", "value": "no significant effect"}, {"measurement": "quantified cytoplasmic Ca2+ (AUC), significant difference", "setting": "[4]; s.c. 24 h pretreatment, all doses", "value": "a significant difference was not observed"}, {"measurement": "recovery of cytoplasmic calcium concentration variations at each 80K-ACSF administration", "setting": "[4]; β-NMN 30 or 100 mg/kg, Specimen 1 0.01 to 1.0 mg/kg, s.c. 24 h", "value": "show similar recovery"}, {"measurement": "physiological response of the preparations under 80K-ACSF stimulation (mitochondrial and cytoplasmic Ca2+ variations)", "setting": "[5]; 100 mg/kg β-NMN, 1 mg/kg Specimen 1", "value": "the preparations can maintain a markedly stable physiological response"}, {"measurement": "mitochondrial protective function / function stabilizing effect", "setting": "[5]; 24 hours after administration", "value": "significant mitochondrial function stabilizing effect"}, {"measurement": "effective amount", "setting": "[5]; s.c. 24 h pretreatment", "value": "≤ 1.0", "unit": "mg/kg"}, {"measurement": "strength of mitochondrial Ca2+ concentration suppressing effect relative to β-NMN, judged from the effective concentration", "setting": "[5]; s.c. 24 h pretreatment", "value": 100, "unit": "times"}, {"measurement": "mitochondrial calcium concentration as AUC, cerebral cortex (CTX) and hippocampus (CA1)", "setting": "[5]; s.c. 24 h pretreatment, within the dose range studied, Tukey's method", "value": "a dose response relationship"}, {"measurement": "mitochondrial Ca2+ increase on three times 80K ACSF exposure (time course)", "setting": "[5]; s.c. 24 h pretreatment, β-NMN 10, 30, 100 mg/kg, Specimen 1 0.01, 0.1, 1.0 mg/kg", "value": "dose-dependently suppress a mitochondrial Ca^2+ increase"}, {"measurement": "ATP production amount (intracellular ATP concentration vs without addition)", "setting": "[6]", "value": "significantly increased the ATP production amount"}, {"measurement": "hydrophobicity", "setting": "[7]", "value": "highly hydrophobic"}, {"measurement": "stability", "setting": "[7]; chemical stability", "value": "stable"}, {"measurement": "drug efficacy on axons at 0.3 μM and 1.0 μM", "setting": "hippocampal neurons [8]; [9]", "value": "almost similar maximum drug efficacy"}, {"measurement": "drug efficacy on dendrites at 0.3 μM and 1.0 μM", "setting": "hippocampal neurons [8]; [9]", "value": "almost similar maximum drug efficacy"}, {"measurement": "number of excitatory synapses", "setting": "hippocampal neurons [8]; 0.3 μM, VGLUT1 antibody, culture day 14", "value": "significantly increased the number of excitatory synapses to the maximum"}, {"measurement": "dendrite extension and number of branches", "setting": "hippocampal neurons [8]; 0.1, 0.3, 1.0 μM added once on culture day 1, MAP2 antibody, culture day 4", "value": "concentration-dependently extended the dendrite and increased the number of branches thereof"}, {"measurement": "elongation/growth of neuron axons and number of branches", "setting": "hippocampal neurons [8]; 0.1, 0.3, 1.0 μM added once on culture day 1, tau antibody, culture day 4", "value": "concentration-dependently increases the elongation/growth of neuron axons and the number of branches"}]}
